In patent US12326385B2, “Cell-permeable fluorogenic fluorophores” (MAX-PLANCK-GESELLSCHAFT ZUR FÖRDERUNG DER WISSENSCHAFTEN E. …, priority 2018, dated 2025):
Marks after values point to notes of the source that are not given here.

Key:
[1] = UV-Vis and fluorescence spectroscopy of free dye or probe in buffer or SDS; format: physicochemical
Procedure: UV-Vis and Fluorescence Spectroscopy
Spectroscopy was performed using 96-well plate (Thermo Fisher) with optical bottom. All measurements were taken at ambient temperature (25±2° C.). Absorption and fluorescence spectra were recorded on Spark® microplate reader (Tecan). Maximum absorption wavelength (λabs), and maximum emission wavelength (λem) were taken in 10 mM HEPES, pH 7.3 buffer unless otherwise noted; reported values for ε are averages (n=3). Normalized spectra are shown for clarity.
(§1) SDS (10% in 10 mM HEPES) was added with dilution of 100 folds as a control group. Absorbance and fluorescence measurements were performed in 96-well plate (Thermos Fisher) with optical bottom.

[2] = UV absorbance spectra in water-dioxane mixtures (D50); format: physicochemical; conditions: dioxane-H2O mixture (v/v: 90/10-10/90), dielectric constant at half-maximal zwitterion absorbance
Source text: The inventors' efforts to improve the permeability and fluorogenicity of rhodamine derivatives for live-cell imaging focused on increasing the propensity of rhodamines to form the spirocyclic, non-fluorescent form without affecting the spectroscopic properties of the parental molecule. The inventors initially considered replacing the carboxylic acid responsible for formation of the spirolactone with an amide. However, such rhodamine derivatives have been reported to strongly favor spirolactams at physiological pH, making them unsuitable for live-cell imaging. The inventors therefore attempted to destabilize the spirolactam by attaching different electron-withdrawing groups to the underlying amides. Specifically, the inventors converted 6-carboxytetramethylrhodamine (6-TAMRA), a widely used fluorophore with good photophysical properties, into the corresponding acyl cyanamide (132), acyl sulfonamide (133) and acyl sulfamide (134 and 135), (FIG. 32c). The acyl cyanamide of rhodamine B was previously reported to exist as a fluorescent zwitterion at physiological pH. Acyl sulfonamides and acyl sulfamides are used in medicinal chemistry as anionic pharmacophores. Amides 132-135 were prepared in three simple steps from commercially available 6-TAMRA (FIG. 32c). To investigate the propensity of these amides to form the corresponding spirolactams, the inventors measured their absorbance spectra in water-dioxane mixtures with […]. The equilibrium between the zwitterionic and spirocyclic form can then be characterized by the D50 value, which is defined as the dielectric constant at which absorbance of the fluorescent zwitterion is decreased by half compared to the highest recorded absorbance value measured in dioxane-water mixtures. […] In comparison, the D50 value of TAMRA is around 10 showing that in aqueous solution TAMRA exists predominantly in its open form and TAMRA-based probes are usually not fluorogenic. The measured D50 values of amides 132-135 ranged from 32 to around 60 (FIG. 32d), which indicates the potential of these fluorophores for the generation of permeable and fluorogenic probes. […] The possibility to tune the equilibrium between the open and closed form of the fluorophore by varying the substituents on the amide is an important feature of this approach.
Measurements of UV Absorbance Spectra in Water-Dioxane Mixtures
Solutions of 5 μM Rhodamine B, RhB-CH3 (201, Z=CH3), RhB-Ben (201, Z=CH2Ph), RhB-CN (201, Z=CN), RhB-SCH3 (115), RhB-SNH2 (116), RhB-SNMe2 (117), RhB-CONH2 (118), WS1-SCF3, (119) WS1-SCH3 (120), WS1-CN (121), WS1-SNH2 (122), WS1-SO (123), WS1-UREA (124) in water-dioxane mixtures containing 10%, 20%, 30%, 40%, 50%, 60%, 70%, 80% and 90% of dioxane (by volume) were prepared. The absorbance spectra were recorded using a Spark® microplate reader (Tecan). The spectra were integrated from 400 to 700 nm for Rhodamine B-based fluorophores and from 350 to 750 nm for WS1-based fluorophores using the software Prism 7. Normalized integrals were plotted against dielectric constant of water-dioxane mixture.

SNAP-Halo-tag = test: Increase in absorbance and fluorescence on binding to SNAP-HaloTag protein in vitro; format: biochemical; conditions: for Φ / ε^protein / λabs / λem: binding with SNAP-Halo-tag; for F/F0: ± s.e.m.
Procedure: Measurement of Increase in Absorbance and Fluorescence.
SNAP-HaloTag protein were used as a 85 μM-200 μM solution in 75 mM NaCl, 50 mM TRIS-HCl, pH 7.4 with 50% v/v glycerol (TBS-glycerol). SNAPTag and HaloTag based fluorogenic probes were diluted to 1.0-2.0 μM in 10 mM HEPES, pH 7.3. Then an aliquot of SNAPTag/HaloTag protein (1.5-2.0 equiv) was added and the resulting mixture was incubated until consistent absorbance signal was observed (˜60 min).
as §1

[3] = tested on: U2OS FlpIn Halo-SNAP-NLS expressing cells; test: No-wash live-cell confocal imaging, nuclear versus cytosol signal; format: cell-based; conditions: for Fnuc./Fcyt.: average ratio between nuclear signal (U2OS FlpIn Halo-SNAP-NLS expressing cells) and cytosol signal (normal U2OS cell), ± s.e.m.; for nuclei to cytosol signal ratio (Fnuc/Fcyt): no-wash live-cell imaging, U2OS cells, 250 nM for MaP555-SNAP and MaP700-Halo; for time to staining / saturation / completion of labeling: nuclear localized HaloTag in U2OS cells, 250 nM for MaP510-Halo and MaP700-Halo
Source text: Self-labeling protein tags such as SNAP-tag and HaloTag are an efficient approach to attach synthetic fluorophores to proteins in living cells. The main challenge when using these tags for live-cell imaging is the low cell permeability of most fluorescent probes used for labeling and high background signal resulting from their unspecific binding. SNAP-tag fusion proteins can be specifically labeled with different fluorophores using appropriate O^6-benzlyguanine derivatives. A 6-TAMRA based probe (150) for SNAP-tag has been previously introduced for live-cell imaging, but its low cell-permeability and lack of fluorogenicity requires the use of high concentrations (5 μM) and repeated washing steps to remove excess and non-specifically bound probe. To address these problem, the inventors coupled fluorophores 132-135 to O^6-benzylguanine to obtain probes 152, 154, 156, and 158. […] The inventors then examined the performance of probes 150, 152, 154, 156, and 158 in live-cell imaging, in which U2OS cells stably expressing a nuclear localized SNAP-Halo fusion protein were co-cultured with regular U2OS cells not expressing any protein tags. […] Furthermore, the kinetics of labeling of nuclear localized SNAP-tag with MaP555-SNAP were much faster than those of control […]. The inventors then prepared the corresponding 6-TAMRA-based probes 151, 153, 155, 157, and 159 for HaloTag. As for SNAP-tag, the probe with the largest enhancement in absorbance (16-fold) and fluorescence intensity (35-fold) in in vitro assays was based on the N,N-dimethylsulfamide derivative 159 (abbreviated as MaP555-Halo in the following). […] The excellent performance of MaP555-SNAP and MaP555-Halo in live-cell imaging experiments support the inventors' assumption that establishing a dynamic equilibrium between the fluorescent zwitterion and the more hydrophobic spirolactam enables the generation of highly cell-permeable and fluorogenic probes for live-cell imaging.
Generation of U2OS FlpIn Halo-SNAP-NLS Cell Lines
The Flp-In™ System (ThermoFisher Scientific) was used to generated U2OS FlpIn Halo-SNAP-NLS expressing cells. pcDNA5-FRT-Halo-SNAP-NLS and pOG44 were co-transfected into the host cell line U2OS FLpIn (Malecki et al. Molecular and Cellular Biology 26, 4642 (2006)). Homologous recombination between the FRT sites in pcDNA5-FRT-Halo-SNAP-NLS and on the host cell chromosome, catalysed by the Flp recombinase expressed from pOG44, produced the U2OS FlpIn Halo-SNAP-NLS stably expressing cells.
Live-Cell Confocal Imaging
U2OS FlpIn Halo-SNAP-NLS expressing cells were grown in 96-well plate (Thermos Fisher) with optical bottom at 37° C. in a humidified 5% (vol/vol) CO2 environment. 50-500 nM probes and 2 μM verapamil were added and incubated for 1 h in DMEM media (Evrogen) containing 10% FBS. The cells were directly used to image without washing. Meanwhile, another group was imaged after being washed 2 times for 5 min with 1× phosphate buffered saline (PBS, pH 7.4) and DMEM supplemented with 10% FBS. Imaging was performed using Leica TCS SP8 confocal microscope. TMR- and Rhodamine B—, and Rhodamine 110-based probes were excited at 540 nm and the fluorescence signal was collected from 560-700 nm. Semi-Rhodamine-based probes were excited at 650 nm and the fluorescence signal was […] from 670-760 nm. Images were processed with Fiji (http://fiji.sc/wiki/index.php/Fiji) to obtain MIP (maximum intensity projections)

[4] = 0.1% SDS in HEPES buffer (pH 7.3)
[5] = ratio of fluorescence intensities at 635 nm in the presence and absence of SNAP-Halo-tag
[6] = upon binding to HaloTag, in vitro

Compound	Φ [1, 4]	Φ ([1]; HEPES buffer (pH 7.3))	ε ([1]; HEPES buffer (pH 7.3))	λabs ([1]; HEPES buffer (pH 7.3))	λem ([1]; HEPES buffer (pH 7.3))	D50 [2]	Φ (SNAP-Halo-tag)	also measured
CN(C)c1ccc2c(-c3cc(C(=O)[O-])ccc3C(=O)O)c3ccc(=[N+](C)C)cc-3oc2c1 [6-TAMRA, 6-carboxytetramethylrhodamine, reference compound]	0.39	0.43	84,000^a M^−1cm^−1	550 nm	578 nm	12^d	–	D50 ([2]; listed as TAMRA): around 10
Cl.N=c1ccc2c(-c3ccccc3C(=O)O)c3ccc(N)cc3oc-2c1 [R110, Rhodamine 110, reference compound]	–	–	–	–	–	15	–	–
CN1CCc2cc3c(cc21)[Si](C)(C)c1cc2c(cc1C31OC(=O)c3ccc(C(=O)O)cc31)CCN2C [compound 35, reference compound]	0.16	–	104,000^a M^−1cm^−1	694 nm	718 nm	54^d	0.17	–
CN1CCc2cc3c(cc21)[Si](C)(C)c1cc2c(cc1C31c3cc(C(=O)O)ccc3C(=O)N1C#N)CCN2C [compound 140]	–	–	8,200^a M^−1cm^−1	698 nm	720 nm	>75^d	–	–
CN1CCc2cc3c(cc21)[Si](C)(C)c1cc2c(cc1C31c3cc(C(=O)NCCOCCOCCCCCCCl)ccc3C(=O)N1C#N)CCN2C [compound 168]	0.18	–	340 M⁻¹ cm⁻¹	–	–	–	0.24	ε^protein (SNAP-Halo-tag): 52,000 M^−1cm^−1; λabs (SNAP-Halo-tag): 700 nm; λem (SNAP-Halo-tag): 720 nm; F/F0 (SNAP-Halo-tag; ratio of fluorescence intensities at 720 nm in the presence and absence of SNAP-Halo-tag): 650 ± 5.8^e; increase in absorbance (SNAP-Halo-tag; [6]): 150 fold; increase in fluorescence intensity (SNAP-Halo-tag; [6]): 650 fold; ε^SDS [1, 4]: 12,000^c M^−1cm^−1; Fnuc./Fcyt. [3]: 47 ± 3.4^f; nuclei to cytosol signal ratio (Fnuc/Fcyt) [3]: 47; time to staining / saturation / completion of labeling [3]: ≤ 10 min

Now from value to compound, other results behind:

Φ [1, 4]	Φ ([1]; HEPES buffer (pH 7.3))	ε ([1]; HEPES buffer (pH 7.3))	λabs ([1]; HEPES buffer (pH 7.3))	λem ([1]; HEPES buffer (pH 7.3))	D50 [2]	Compound	Φ (SNAP-Halo-tag)	also measured
0.69	0.68	74,000^a M^−1cm^−1	502 nm	526 nm	70^d	CN(C)S(=O)(=O)N1C(=O)c2ccc(C(=O)O)cc2C12c1ccc(N)cc1Oc1cc(N)ccc12 [compound 21]	–	D50 ([2]; listed as MaP510): 70
0.45^a/0.45^c	0.45^a/0.45^c	89,000^a M^−1cm^−1	552 nm	580 nm	32^d	CN(C)c1ccc2c(c1)Oc1cc(N(C)C)ccc1C21c2cc(C(=O)O)ccc2C(=O)N1C#N [compound 132]	–	–
0.46	0.43	89,000^a M^−1cm^−1	553 nm	580 nm	44^d	CN(C)c1ccc2c(c1)Oc1cc(N(C)C)ccc1C21c2cc(C(=O)O)ccc2C(=O)N1S(C)(=O)=O [compound 133]	–	–
0.44^a/0.44^c	0.44^a/0.44^c	83,000^a M^−1cm^−1	552 nm	580 nm	57^d	CN(C)c1ccc2c(c1)Oc1cc(N(C)C)ccc1C21c2cc(C(=O)O)ccc2C(=O)N1S(N)(=O)=O [compound 134]	–	–
0.43	0.4	88,000^a M^−1cm^−1	553 nm	580 nm	58^d	CN(C)c1ccc2c(c1)Oc1cc(N(C)C)ccc1C21c2cc(C(=O)O)ccc2C(=O)N1S(=O)(=O)N(C)C [compound 135]	–	–
–	–	440 M⁻¹ cm⁻¹	–	–	–	CN(C)c1ccc2c(c1)C(C)(C)c1cc(N(C)C)ccc1C21c2cc(C(=O)NCCOCCOCCCCCCCl)ccc2C(=O)N1S(N)(=O)=O [compound 165]	0.58^b/—	ε^protein (SNAP-Halo-tag): 101,000 M^−1cm^−1; λabs (SNAP-Halo-tag): 618 nm; λem (SNAP-Halo-tag): 635 nm; F/F0 (SNAP-Halo-tag; [5]): 611 ± 42^e; ε^SDS [1, 4]: 8,300^c M^−1cm^−1; Fnuc./Fcyt. [3]: 30 ± 4.5^f
–	–	260 M⁻¹ cm⁻¹	–	–	–	CN(C)c1ccc2c(c1)C(C)(C)c1cc(N(C)C)ccc1C21c2cc(C(=O)NCCOCCOCCCCCCCl)ccc2C(=O)N1S(=O)(=O)N(C)C [compound 167]	0.61^b/—	ε^protein (SNAP-Halo-tag): 107,000 M^−1cm^−1; λabs (SNAP-Halo-tag): 618 nm; λem (SNAP-Halo-tag): 635 nm; F/F0 (SNAP-Halo-tag; [5]): 1000 ± 44^e; increase in fluorescence intensity (SNAP-Halo-tag; [6]): 1000 fold; ε^SDS [1, 4]: 7,200^c M^−1cm^−1; Fnuc./Fcyt. [3]: 58 ± 3.9^f; nuclei to cytosol signal ratio (Fnuc/Fcyt) [3]: 58; time to staining / saturation / completion of labeling [3]: ≤ 5 min
